Tested on: MuSCs transplanted into tibialis anterior muscle
Experiment: Transplantation of cultured MuSCs into irradiated NOD/SCID mice, engraftment by bioluminescence imaging
Assay type: in vivo, mouse
Conditions: young MuSCs cultured one week on soft hydrogel with 10 μM; 100 cells transplanted; one month
Experimental: MuSC transplantation. MuSCs were transplanted immediately following FACS isolation or after collection from cell culture directly into the tibialis anterior muscle of recipient mice as previously described. Cells from GFP/Luciferase or Myf5^nLacZl+/Luciferase mice were transplanted into gender-matched, hindlimb-irradiated NOD/SCID (Jackson) mice. NOD/SCID (2-4 months of age, median 2 months) mice were anesthetized with ketamine (2.4 mg per mouse) and xylazine (240 μg per mouse) by intraperitoneal injection then were irradiated by a single dose of 18 Gy administered to the hindlimbs, with the rest of the body shielded in a lead jig. Transplantation was performed within three days post-irradiation. In syngeneic transplant studies, cells from old C57BL/6 mice were transplanted into gender-matched, littermate old C57BL/6 mice (Jackson) following culture for one week on soft hydrogels. Specifically, old C57BL/6 MuSCs were infected with a GFP/Luciferase lentivirus added at day 2 of culture for 24 hours. Recipient old C57BL/6 mice were acutely injured by a single 10 μl intramuscular injection of notexin (10 μg/ml; Latoxan, France) two days prior to cell transplantation, but were not irradiated. Freshly isolated or cultured cells were counted by hemocytometer and resuspended at desired cell concentrations in PBS with 2.5% goat serum and 1 mM EDTA. Cells were collected from hydrogel cultures by incubation with 0.5% trypsin in PBS for 2 min at 37° C. and counted using a hemocytometer. Cells were transplanted by intramuscular injection into the tibialis anterior muscle in a 10 μl volume.
Tissue histology. Recipient tibialis anterior muscle tissues were prepared for histology as previously described to analyze GFP expression. Transverse sections were incubated with anti-laminin (Millipore, Billerica, Calif.), anti-GFP (Invitrogen) antibodies, and/or anti-β-galactosidase (Abcam, Cambridge, Mass.) with appropriate secondary antibodies (Invitrogen). Nuclei were counter-stained with Hoechst 33342 (Invitrogen). Images were acquired with an AxioPlan2 epi-fluorescent microscope (Carl Zeiss Microimaging, Thornwood, N.Y.) with Plan NeoFluar 10×/0.30NA or 20×/0.75NA objectives (Carl Zeiss) and an ORCA-ER digital camera (Hamamatsu Photonics, Bridgewater, N.J.). Digital images were captured in OpenLab software (Improvision, Waltham, Mass.) and assembled in Photoshop software (Adobe, San Jose, Calif.) with consistent contrast adjustments across all images from the same stain.
Bioluminescence imaging. Bioluminescence imaging was performed using a Xenogen-100 system, as previously described. Briefly, mice were anesthetized under isofluorane and 100 μL luciferin (0.1 mmol/kg; Caliper LifeSciences, Hopkinton, Mass.) in PBS was administered by intraperitoneal injection. Following luciferin administration, images were acquired every minute for 15 min. Images acquired at 12 min post-luciferin injection were used for analysis. Digital images were recorded and analyzed using Living Image software (Caliper LifeSciences). Images were analyzed with a consistent region-of-interest (ROI) placed over each hindlimb to calculate a bioluminescence signal. A bioluminescence signal value of 80,000 photons/s was used to define a engraftment threshold, as this level corresponds to the histological detection of one or more GFP^+ myofiber (see FIG. 8A). BLI imaging was performed one month post-transplant unless otherwise stated.
MuSC culture and treatment. Following isolation, MuSCs were pelleted and resuspended into myogenic cell culture medium containing DMEM/F10 (50:50), 15% FBS, 2.5 ng/ml bFGF, and 1% penicillin/streptomycin. MuSCs were seeded at 1000 cells per well (24-well plate size wells, 2.0 cm^2 surface area) on laminin-tethered hydrogels of either 12 kPa (soft) or ˜10^6 kPa (rigid) rigidities. Cells were maintained at 37° C. in 5% CO2. Media was changed daily. […]

C[S+]([O-])c1ccc(-c2nc(-c3ccncc3)c(-c3ccc(F)cc3)[nH]2)cc1 (stereo not shown) [SB203580]
Transplant engraftment efficiency (in words): improves the transplant engraftment efficiency
